Data reported in patent US9278982B2, “Targeting human thymidylate kinase induces DNA repair toxicity in malignant tumor cells” (NATIONAL YANG-MING UNIVERSITY, priority 2010, dated 2016).
Entries after “also recorded” stand apart in the source; their conditions may differ.

Legend:
TMPK [1] = biological target: T1, TMPK (Homo sapiens, UniProt P23919); experiment: In vitro TMPK inhibitory activity of TMPK inhibitor derivatives (inhibition yield); type: biochemical; parameters: GST (N, cleaved yes); made in house; host or cells: E. coli JM109 (pGEX-2T-hTMPK), inferred; conditions: n=3 or 6, read-out: inhibition yield, normalized to compound 21 (YMU1) = 100%
T1 sequence (P23919 1-212): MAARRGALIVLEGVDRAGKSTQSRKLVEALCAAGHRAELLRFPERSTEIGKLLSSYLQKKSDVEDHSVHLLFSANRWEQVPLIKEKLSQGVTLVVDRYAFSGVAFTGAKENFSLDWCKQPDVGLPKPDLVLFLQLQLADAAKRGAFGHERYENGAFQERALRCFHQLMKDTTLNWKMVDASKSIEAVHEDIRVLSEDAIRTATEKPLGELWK
Description: Chemical structures of the different TMPK inhibitor derivatives tested for in vitro TMPK inhibitory activity and in vivo doxorubicin sensitization activity (in MDA-MB231 cells) are depicted below.

MDA-MB231 = experiment: Doxorubicin sensitization, MTS viability assay; type: cell-based, human; conditions: MDA-MB231 cell treatment, compound at 2 μM
Description: (§1) FIG. 16. In vitro and in vivo effect of YMU1 on doxorubicin sensitization. (A) A panel of cell lines were pre-treated with vehicle, YMU1 (compound 21), D6 (ethyl 4-(2-chloroacetyl)piperazine-1-carboxylate) or D7 (compound 28) for 3 days and were exposed to different concentration of doxorubicin for 4 h. […] The enhancement (fold) of doxorubicin sensitivity in each cell line was calculated. Data represent mean±s.d., n=3; each experiment was quadruplex. Inset indicates the IC50 value of doxorubicin in various cell lines. […] Following overnight culture, cells were refreshed with growth medium. After 14 days of culture, colonies were fixed, stained by crystal violet and counted. (C) HCT-116 p53^−/− cells were subcutaneously implanted in the right flank of Balb/c nude mice (each experimental group n=8). Arrow indicated the time of stopping drug treatment. The tumor volume was estimated as described in Methods of the Invention section. (D) After 2 weeks recovered from treatment, mice were sacrificed for tumor weight measurement. Data represent mean±s.e.m; **, P<0.01 by a two-tailed Student's t-test. (E) Ki 67 proliferation marker staining of tumor shown in left panel. Scale bar, 50 μm. (F) Model of doxorubicin sensitization by YMU1 in malignant cancer cells. Both R2/R1 and TMPK are recruited to the site of doxorubicin-induced double-strand breaks, where dATP, dGTP, dCTP, dTTP and dUTP are site-specific synthesized. Inhibition of TMPK decreases dTTP formation at DNA damage sites, causing futile DNA repair due to dUTP incorporation.
(§2) Next, various human cancer cell lines were treated with YMU1, D6 or D7 for 72 h to test the potential of TMPK inhibitor in doxorubicin sensitization. After exposure to different concentration of doxorubicin for 4 h, cells were refreshed for viability analysis after 2 days and the IC50 value for doxorubicin in each of the cell lines was determined (FIG. 16A and Table 2).
(§3) Cells plated into a 96-well plate (10^3 cells/well) were treated and cell viability was measured by MTS assay (Promega) (Cory et al., 1991). An annexin V-fluorescein isothiocyanate (FITC) apoptosis kit (Calbiochem) was used to detect apoptosis. The cell cycle analysis was performed by staining cells with propidium iodide (PI) for fluorescence-activated cell sorter (FACS) analysis with CellQuest software.

TMPK [2] = biological target: T1, TMPK; experiment: Luciferase-coupled TMPK assay; type: biochemical; parameters: GST (N, cleaved yes); made in house; host or cells: E. coli JM109 (pGEX-2T-hTMPK); conditions: purified hTMPK protein (0.5 μg), 10 min preincubation
Description: FIG. 12. Identification of a novel hTMPK inhibitor. (A) A screen of TMPK inhibitor by luciferase-coupled assay. (B) The chemical structures of YMU1 (compound 21) and related molecules. (C) Effect of YMU1 and derivative compounds on hTMPK inhibition using purified hTMPK protein (0.5 μg) with 10 min preincubation prior to reaction using luciferase-coupled TMPK analysis. (D) Effect of YMU1 on activity of purified TMPK (0.5 μg) and GST-hTK1 protein (5 μg) with 10 min preincubation prior to reaction. Data represent mean±s.d. (n=4) (E) Molecular models of the TMPK-YMU1 complex. Left panel: TMPK/ATP/Mg+2; right panel: TMPK/YMU1. The TMPK is represented in surface electrostatic potential (upper) and structural ribbon (lower). ATP and YMU1 are shown in green and blue stick, respectively, with colored atom (O, red; S, yellow; P, orange). TMP is shown in white backbone and Mg+2 in purple. Arrow indicates the position of Asp15.
Based on the functional requirement of TMPK in DNA repair specifically in tumor cells with elevated level of R2 expression, we searched for inhibitors of hTMPK that might be useful in selectively sensitizing tumor cells to doxorubicin. […] The synthetic procedure and structural elucidation of YMU1 (compound 21) are described in the Methods of the Invention section of the application.
The TMPK reaction was started by adding purified hTMPK in 50 μl of TMPK assay buffer (100 mM Tris-HCl, pH 7.5, 100 mM KCl, 10 mM MgCl2, 50 μM ATP and 100 μM dTMP) in 96 wells plate at 25° C. for 10 min and terminated by adding 200 μl of DTNB (100 μM), followed by transferring 10 μl of reaction solution to a white 96-wellplate containing 90 μl of luciferase assay buffer (50 mM Glycine, 0.5 mM EDTA and 5 mM EDTA, pH 7.0, 0.1 μg of luciferase, 50 μM luciferin and 0.1% BSA). The luminescence was measured with a luminescence counter (Packard).

panel of cell lines = experiment: Doxorubicin sensitization, MTS viability assay, summary over the panel of cell lines; type: cell-based, human; conditions: all these cell lines; 72 h pre-treatment
Description: as §1, §2
The ability of YMU1 to sensitize non-tumorigenic mammary cycling H184B5F5/M10, MCF10A, primary human mammary epithelial (HMEC) and primary renal epithelial (HREC) cells and IMR-90 embryonic lung fibroblasts to doxorubicin was much weaker.
as §3

inhibition at 2 µM (TMPK [1]) | SMILES | further results
51.4% | CC(C)(C)OC(=O)N1CCN(C(=O)CN2C(=O)c3ccccc3C2=O)CC1 [compound 18, Tert-Butyl 4-[2-(1,3-dioxo-1,3-dihydro-isoindol-2-yl)-acetyl]-piperazine-1-carboxylate] | –
92.9% | CCOC(=O)N1CCN(C(=O)N2Cc3ccccc3C2=O)CC1 [compound 5, Ethyl 4-(1-oxoisoindoline-2-carbonyl)piperazine-1-carboxylate] | –
96.8% | O=C(Cn1sc2ccccc2c1=O)N1CCNCC1 [compound 10, 2-(2-Oxo-2-(piperazin-1-yl)ethyl)benzo[d]isothiazol-3(2H)-one] | inhibition against hTMPK (TMPK [2]): considerable inhibitory function; enhancement on doxorubicin sensitization (MDA-MB231): had no effect
0% | CCOC(=O)N1CCN(C(=O)CCCn2sc3ccccc3c2=O)CC1 [compound 23, Ethyl 4-(4-(3-oxobenzo[d]isothiazol-2(3H)-yl)butanoyl)piperazine-1-carboxylate] | –
7.8% | COC(=O)COc1nsc2nc(C)cc(C)c12 [compound 25, Methyl 2-(4,6-dimethylisothiazolo[5,4-b]pyridin-3-yloxy)acetate] | –
28% | Cc1cc(C)c2c(=O)[nH]sc2n1 [compound 4, 4,6-Dimethylisothiazolo[5,4-b]pyridin-3(2H)-one] | inhibition against hTMPK (TMPK [2]; listed as D3): weak inhibitory activity; also recorded: do not inhibit TMPK
11.8% | O=C(CN1C(=O)c2ccccc2S1(=O)=O)N1CCNCC1 [compound 16, 2-(2-Oxo-2-(piperazin-1-yl)ethyl)benzo[d]isothiazol-3(2H)-one 1,1-dioxide] | –

The next lines start with the compound.

SMILES | inhibition at 2 µM (TMPK [1]) | further results
COC(=O)Cn1sc2nc(C)cc(C)c2c1=O [compound 7, Methyl 2-(4,6-dimethyl-3-oxoisothiazolo[5,4-b]pyridin-2(3H)-yl)acetate] | 98.3% | melting point: 89 to 91 °C
Cc1cc(C)c2c(=O)n(CC(=O)O)sc2n1 [compound 9, 2-(4,6-Dimethyl-3-oxoisothiazolo[5,4-b]pyridin-2(3H)-yl)acetic acid] | 47% | –
CCOC(=O)N1CCN(C(=O)Cn2sc3ccccc3c2=O)CC1 [compound 11, Ethyl 4-(2-(3-oxobenzo[d]isothiazol-2(3H)-yl)acetyl)piperazine-1-carboxylate] | – | inhibition (TMPK [1]): 100%
Cc1cc(C)c2c(OCC(=O)N3CCOCC3)nsc2n1 [compound 27, 2-(4,6-Dimethylisothiazolo[5,4-b]pyridin-3-yloxy)-1-morpholinoethanone] | 16% | melting point: 153 to 155 °C
Cc1cc(C)c2c(=O)n(CC(=O)N3CCOCC3)sc2n1 [compound 19, 4,6-Dimethyl-2-(2-morpholino-2-oxoethyl)isothiazolo[5,4-b]pyridin-3(2H)-one] | 100% | enhancement on doxorubicin sensitization (MDA-MB231): had no effect
Cc1cc(C)c2c(=O)n(CC(=O)N3CCN(C(=O)OC(C)(C)C)CC3)sc2n1 [compound 22, Tert-butyl 4-(2-(4,6-dimethyl-3-oxoisothiazolo[5,4-b]pyridin-2(3H)-yl)acetyl) piperazine-1-carboxylate] | 112% | –
Cc1cc(C)c2c(OCC(=O)O)nsc2n1 [compound 26, 2-(4,6-Dimethylisothiazolo[5,4-b]pyridin-3-yloxy)acetic acid] | 16.4% | –
CC(C)(C)OC(=O)N1CCN(C(=O)CN2C(=O)c3ccccc3S2(=O)=O)CC1 [compound 17, Tert-butyl 4-(2-(3-oxobenzo[d]isothiazol-2(3H)-yl)acetyl)piperazine-1-carboxylate 1,1-dioxide] | 10.1% | –
O=C(Cn1sc2ccccc2c1=O)N1CCN(C(=O)Cn2sc3ccccc3c2=O)CC1 [compound 24, 2,2′-(2,2′-(piperazine-1,4-diyl)bis(2-oxoethane-2,1-diyl))dibenzo[d]isothiazol-3(2H)-one] | 118% | –
Cc1cc(C)c2c(=O)n(CC(=O)N3CCNCC3)sc2n1 [compound 20, 4,6-Dimethyl-2-(2-oxo-2-(piperazin-1-yl)ethyl)isothiazolo[5,4-b]pyridin-3(2H)-one] | 99.5% | –
O=C(O)Cn1sc2ccccc2c1=O [compound 8, 2-(3-oxobenzo[d]isothiazol-2(3H)-yl)acetic acid] | 29.1% | –
O=C(Cn1sc2ccccc2c1=O)N1CCN(C(=O)Oc2ccc([N+](=O)[O-])cc2)CC1 [compound 14, 4-Nitrophenyl 4-(2-(3-oxobenzo[d]isothiazol-2(3H)-yl)acetyl)piperazine-1-carboxylate] | 129% | –
COC(=O)Cn1sc2ccccc2c1=O [compound 6, Methyl 2-(3-oxobenzo[d]isothiazol-2(3H)-yl)acetate] | 96% | –
Cc1ccc2c(=O)[nH]sc2n1 [compound 3, 6-Methylisothiazolo[5,4-b]pyridin-3(2H)-one] | 76.5% | –
CC(C)(C)OC(=O)N1CCN(C(=O)Cn2sc3ccccc3c2=O)CC1 [compound 12, Tert-butyl 4-(2-(3-oxobenzo[d]isothiazol-2(3H)-yl)acetyl)piperazine-1-carboxylate] | 124% | enhancement on doxorubicin sensitization (MDA-MB231): 30 fold
C=CCN1CCN(C(=O)Cn2sc3ccccc3c2=O)CC1 [compound 15, 2-(2-(4-Allylpiperazin-1-yl)-2-oxoethyl)benzo[d]isothiazol-3(2H)-one] | 102% | –
O=C(Cn1sc2ccccc2c1=O)N1CCN(C(=O)OCc2ccccc2)CC1 [compound 13, Benzyl 4-(2-(3-oxobenzo[d]isothiazol-2(3H)-yl)acetyl)piperazine-1-carboxylate] | 127% | –
CCOC(=O)N1CCN(C(=O)CI)CC1 [D6, ethyl 4-(2-iodoacetyl)piperazine-1-carboxylate] | – | doxorubicin sensitization effect (panel of cell lines): had no doxorubicin sensitization effect; inhibition against hTMPK (TMPK [2]): Neither D6 (as the piperazine fragment of YMU1) nor D7 (as the O-alkylation isomer of YMU1) showed any inhibition; also recorded: do not inhibit TMPK
